tested on: THP-1; experiment: Anti human TNF-alpha activity determined through TNF-alpha release was measured in the supernatants by ELISA; not active at a concentration of <10 uM; assay type: functional, cell-based; call rule not given here

IC50 | Compound
Not Active | CC(C)(C)OC(=O)N1CC2CC1CN2c1cc2c(nc1Sc1ccc(F)cc1F)CNC(=O)N2c1c(Cl)cccc1Cl (configuration not stated)
Not Active | CC(C)(C)OC(=O)N1CCN(c2cc3c(nc2Sc2ccc(F)cc2F)CNC(=O)N3c2c(Cl)cccc2Cl)CC1

biological target: MAP kinase p38 (Mus musculus, UniProt P47811+O08911+Q9WUI1+Q9Z1B7); experiment: Inhibitory activity against mouse Mitogen-activated protein kinase p38; assay type: protein assay

Compound | IC50 [nM]
O=C1NCc2nc(Sc3ccc(F)cc3F)c(N3CCNCC3)cc2N1c1c(Cl)cccc1Cl | 2
O=C1NCc2nc(Sc3ccc(F)cc3F)c(NC3CCNCC3)cc2N1c1c(Cl)cccc1Cl | 4
O=C1NCc2nc(Sc3ccc(F)cc3F)c(N3CCCCC3)cc2N1c1c(Cl)cccc1Cl | 4.2
O=C1NCc2nc(Sc3ccc(F)cc3F)c(OC3CCNCC3)cc2N1c1c(Cl)cccc1Cl | 11
O=C1NCc2nc(Sc3ccc(F)cc3F)c(Br)cc2N1c1c(Cl)cccc1Cl | 16
O=C1NCc2nc(Sc3ccc(F)cc3F)c(N3CCN(CCN4CCCC4)CC3)cc2N1c1c(Cl)cccc1Cl | 1.1
CN(C)CCN1CCN(c2cc3c(nc2Sc2ccc(F)cc2F)CNC(=O)N3c2c(Cl)cccc2Cl)CC1 | 0.6
O=C1NCc2nc(Sc3ccc(F)cc3F)c(N3CCC(CCN4CCCC4)CC3)cc2N1c1c(Cl)cccc1Cl | 6

Now from value to compound:

IC50 [nM] | Compound
2 | CC(C)N1CC2CC1CN2c1cc2c(nc1Sc1ccc(F)cc1F)CNC(=O)N2c1c(Cl)cccc1Cl (configuration not stated)
3 | O=C1NCc2nc(Sc3ccc(F)cc3F)c(N3CC4CC3CN4CC3CC3)cc2N1c1c(Cl)cccc1Cl (configuration not stated)
44 | CC(C)(C)OC(=O)N1CC2CC1CN2c1cc2c(nc1Sc1ccc(F)cc1F)CNC(=O)N2c1c(Cl)cccc1Cl (configuration not stated)
0.6 | O=C1NCc2nc(Sc3ccc(F)cc3F)c(N3CC4CC3CN4)cc2N1c1c(Cl)cccc1Cl (configuration not stated)
7 | CC(C)N1CCN(c2cc3c(nc2Sc2ccc(F)cc2F)CNC(=O)N3c2c(Cl)cccc2Cl)CC1
3 | CC1CN(c2cc3c(nc2Sc2ccc(F)cc2F)CNC(=O)N3c2c(Cl)cccc2Cl)CC(C)O1 (configuration not stated)
3 | O=C1NCc2nc(Sc3ccc(F)cc3F)c(N3CC4CC3CN4C3CC3)cc2N1c1c(Cl)cccc1Cl (configuration not stated)
25 | CC(C)(C)OC(=O)N1CCN(c2cc3c(nc2Sc2ccc(F)cc2F)CNC(=O)N3c2c(Cl)cccc2Cl)CC1
5.3 | O=C1NCc2nc(Sc3ccc(F)cc3F)c(N3CC4CCC3C4)cc2N1c1c(Cl)cccc1Cl (configuration not stated)
9 | CCN1CC2CC1CN2c1cc2c(nc1Sc1ccc(F)cc1F)CNC(=O)N2c1c(Cl)cccc1Cl (configuration not stated)
2 | O=C1NCc2nc(Sc3ccc(F)cc3F)c(N3CCOCC3)cc2N1c1c(Cl)cccc1Cl

tested on: THP-1; experiment: Anti human TNF-alpha activity determined through TNF-alpha release was measured in the supernatants by ELISA.; not active at a concentration of <10 uM; assay type: functional, cell-based

IC50 | Compound
Not Active | O=C1NCc2nc(Sc3ccc(F)cc3F)c(Br)cc2N1c1c(Cl)cccc1Cl
